The values below are quoted from earlier work in patent US20120196889A1, “CATECHOLAMINE DERIVATIVES AND PRODRUGS THEREOF” (H. Lundbeck A/S, priority 2009, published 2012).

For the data set the following is noted: in man after oral dosing; high hepatic first-pass metabolism.

In the case of `CCCc1cc2c(s1)CN[C@@H]1CCc3cc(OC(C)=O)c(OC(C)=O)cc3[C@@H]21` [Adrogolide], the oral bioavailability was ~4%.
